Measurements published in PMC9227536, “Prediction of Pharmacokinetics of IDP-73152 in Humans Using Physiologically-Based Pharmacokinetics” (Pharmaceutics, 2022).

Tests used:
[1] = Stability in plasma, dog; type: in vitro ADME; conditions: dogs plasma
Protocol: The unbound fractions of IDP-73152 in various matrices were measured according to the manufacturer's instructions for the rapid equilibrium dialysis (RED) device (ThermoFisher Scientific, Waltham, MA, USA). Briefly, IDP-73152 was added to the plasma or the microsomal/hepatocyte incubation buffer from various species (i.e., mouse, rat, dog, and human for microsomal incubation; rat for hepatocyte incubation) to obtain final concentrations of the compound at 0.3, 1, and 3 μM. After the membrane insert was placed in the RED plate, the solution containing IDP-73152 was added (400 μL) to the sample chamber, and the dialysis buffer (600 μL) was added to the buffer chamber. The RED plate was sealed with parafilm and then incubated at 37 °C in the orbital shaker (Lab Companion, Daejeon, Korea) at 100 rpm for 5 h. […] The IDP-73152 concentration in the buffer/sample chambers (i.e., CBuffer Chamber and CSample Chamber) was determined by an assay. Thus, the fraction unbound was defined as:(2) % Fraction unbound=(CBuffer Chamber/CSample Chamber)×100% When necessary, the stability of IDP-73152 in the matrix was also determined at 5 h. […] Accordingly, the kinetics of IDP-73152 instability were determined in the rat blood at a final concentration of 0.3 μM. […]

[2] = Unbound fraction in plasma (rapid equilibrium dialysis), human; type: in vitro ADME; conditions: humans plasma, 0.3, 1, 3 μM, RED 5 h, read-out: fu,p
Protocol: The unbound fractions of IDP-73152 in various matrices were measured according to the manufacturer’s instructions for the rapid equilibrium dialysis (RED) device (ThermoFisher Scientific, Waltham, MA, USA). Briefly, IDP-73152 was added to the plasma or the microsomal/hepatocyte incubation buffer from various species (i.e., mouse, rat, dog, and human for microsomal incubation; rat for hepatocyte incubation) to obtain final concentrations of the compound at 0.3, 1, and 3 μM. After the membrane insert was placed in the RED plate, the solution containing IDP-73152 was added (400 µL) to the sample chamber, and the dialysis buffer (600 μL) was added to the buffer chamber. The RED plate was sealed with parafilm and then incubated at 37 °C in the orbital shaker (Lab Companion, Daejeon, Korea) at 100 rpm for 5 h. After a 50 μL aliquot was aspirated from both the sample and buffer chambers, an equal volume of protein-free buffer or blank medium was replaced in the aspirated sample or buffer to render the matrices compositionally identical. The IDP-73152 concentration in the buffer/sample chambers (i.e., CBuffer Chamber and CSample Chamber) was determined by an assay. Thus, the fraction unbound was defined as:(2) % Fraction unbound=(CBuffer Chamber/CSample Chamber)×100%

SMILES: CC(C)(C)[C@H](NC(=O)[C@H](CC1CCCC1)CN(O)C=O)C(=O)N1CCC(NCc2cc(F)c(F)cc2F)CC1 [IDP-73152]
- percentage remaining in plasma at 5 h ([1]; 5 h, 37 °C): 101 ± 6%
- stability in plasma ([1]; preliminary study): stable
- fraction unbound at 5 h [2]: 0.0744 ± 0.0019
